Results reported in patent publication US6737383B1, “Herbicidal oxadiazolidines” (priority 1999, dated 2004).

How the values were obtained:
giant foxtail = assay: Test B pre/postemergence giant foxtail; type: in vivo, Setaria faberii
Summary of the method: (§1)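 Test chemicals in a non-phytotoxic solvent mixture with surfactant were sprayed preemergence onto planted seeds and postemergence onto plants 2 to 18 cm tall (1- to 4-leaf stage). After twelve to sixteen days in a greenhouse, injury was visually rated against untreated controls from 0 (no effect) to 10 (complete control).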

winter wheat [1] = assay: Test E winter wheat; type: in vivo, Triticum aestivum; conditions: Preemergence
Italian ryegrass = assay: Test E Italian ryegrass; type: in vivo, Lolium multiflorum; conditions: Preemergence
crabgrass = assay: Test B pre/postemergence crabgrass; type: in vivo, Digitaria sanguinalis
Summary of the method: as §1

green foxtail = assay: Test E green foxtail; type: in vivo, Setaria viridis; conditions: Preemergence
soybean = assay: Test B pre/postemergence soybean; type: in vivo, Glycine max
Summary of the method: as §1

wild oat = assay: Test E wild oat; type: in vivo, Avena fatua; conditions: Preemergence
winter wheat [2] = assay: Test E winter wheat; type: in vivo, Triticum aestivum; conditions: Postemergence
Summary of the method: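 Each compound, carried in a non-phytotoxic solvent blend including surfactant, was applied (postemergence: over the top of young plants at 1- to 4-leaf stage). Plants stayed in the greenhouse about 21 to 28 days before visual comparison with untreated controls.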

winter barley = assay: Test E winter barley; type: in vivo, Hordeum vulgare; conditions: Preemergence
sugar beet = assay: Test B pre/postemergence sugar beet; type: in vivo, Beta vulgaris
Summary of the method: as §1

blackgrass = assay: Test E blackgrass; type: in vivo, Alopecurus myosuroides; conditions: Preemergence
[3] = Preemergence, Rate 62 g/ha, scale of 0 to 10 where 0 is no effect and 10 is complete control
[4] = Preemergence, Rate 250 g/ha, scale of 0 to 10 where 0 is no effect and 10 is complete control
[5] = Preemergence, Rate 500 g/ha, scale of 0 to 10 where 0 is no effect and 10 is complete control
[6] = Rate 62 g/ha, Postemergence, scale 0 to 10 (0 no effect, 10 complete control)
[7] = Rate 125 g/ha, Postemergence, scale of 0 to 10 where 0 is no effect and 10 is complete control
[8] = Rate 250 g/ha, Postemergence, scale of 0 to 10 where 0 is no effect and 10 is complete control
[9] = Rate 500 g/ha, 0 to 100 scale (0 no effect, 100 complete control)
[10] = Rate 1000 g/ha, 0 to 100 scale, 0 no effect, 100 complete control
[11] = Rate 250 g/ha, 0 to 100 scale, 0 is no effect, 100 is complete control
[12] = Rate 1000 g/ha, 0 to 100 scale where 0 is no effect and 100 is complete control
[13] = Rate 500 g/ha, 0 to 100 scale, 0 is no effect, 100 is complete control
[14] = Rate 250 g/ha, 0 to 100 scale, 0 no effect, 100 complete control
[15] = Postemergence, Rate 125 g/ha, scale 0 to 10, 0 is no effect, 10 is complete control
[16] = Rate 500 g/ha, Postemergence, scale 0 to 10, 0 no effect, 10 complete control

SMILES: CCN(C(=O)n1oc(=O)n(C(C)C)c1=O)C1CCCCC1 [Compound 309]
- Giant foxtail plant response rating (giant foxtail; [3]): 5
- Giant foxtail plant response rating (0 to 10 scale) (giant foxtail; Preemergence, Rate 125 g/ha): 9
- Giant foxtail plant response rating (giant foxtail; [4]): 9
- Giant foxtail plant response rating (giant foxtail; [5]): 9
- Giant foxtail plant response rating (giant foxtail; [6]): 0
- Giant foxtail plant response rating (giant foxtail; [7]): 0
- Plant response rating, Giant foxtail (giant foxtail; [8]): 0
- Plant response rating, Wheat (winter) (winter wheat [1]; Rate 250 g/ha, 0 to 100 scale): 70
- Plant response rating, Wheat (winter) (winter wheat [1]; [9]): 65
- Plant response rating, Wheat (winter) (winter wheat [1]; [10]): 70
- Plant response rating, I. Ryegrass (Italian ryegrass; Rate 250 g/ha, 0 to 100 scale): 50
- Plant response rating, I. Ryegrass (Italian ryegrass; [9]): 60
- Plant response rating, I. Ryegrass (Italian ryegrass; [10]): 70
- Crabgrass plant response rating (crabgrass; [3]): 0
- Crabgrass plant response rating (0 to 10 scale) (crabgrass; Preemergence, Rate 125 g/ha): 1
- Crabgrass plant response rating (crabgrass; [4]): 2
- Crabgrass plant response rating (crabgrass; [5]): 6
- Crabgrass plant response rating (crabgrass; [6]): 0
- Crabgrass plant response rating (crabgrass; [7]): 0
- Plant response rating, Crabgrass (crabgrass; [8]): 0
- Plant response rating, Green foxtail (green foxtail; Rate 250 g/ha, 0 to 100 scale): 65
- Plant response rating, Green foxtail (green foxtail; [9]): 100
- Plant response rating, Green foxtail (green foxtail; [10]): 100
- Soybean plant response rating (soybean; [3]): 0
- Soybean plant response rating (0 to 10 scale) (soybean; Preemergence, Rate 125 g/ha): 0
- Soybean plant response rating (soybean; [4]): 0
- Soybean plant response rating (soybean; [5]): 0
- Soybean plant response rating (soybean; [6]): 2
- Soybean plant response rating (soybean; [7]): 2
- Plant response rating, Soybean (soybean; [8]): 2
- Plant response rating, Wild oat (wild oat; Rate 250 g/ha, 0 to 100 scale): 50
- Plant response rating, Wild oat (wild oat; [9]): 50
- Plant response rating, Wild oat (wild oat; [10]): 70
- Plant response rating, Wheat (winter) (winter wheat [2]; [11]): 50
- Plant response rating, Wheat (winter) (winter wheat [2]; [12]): 80
- Plant response rating, Wheat (winter) (winter wheat [2]; [13]): 70
- Plant response rating, Barley (winter) (winter barley; [14]): 50
- Plant response rating, Barley (winter) (winter barley; [9]): 20
- Plant response rating, Barley (winter) (winter barley; [10]): 70
- Sugarbeets plant response rating (sugar beet; [3]): 0
- Sugarbeets plant response rating (0 to 10 scale) (sugar beet; Preemergence, Rate 125 g/ha): 0
- Sugarbeets plant response rating (sugar beet; [4]): 0
- Sugarbeets plant response rating (sugar beet; [5]): 0
- Sugarbeets plant response rating (sugar beet; [6]): 0
- Sugarbeets plant response rating (sugar beet; [7]): 0
- Plant response rating, Sugarbeets (sugar beet; [8]): 0
- Plant response rating, Blackgrass (blackgrass; Rate 250 g/ha, 0 to 100 scale): 60
- Plant response rating, Blackgrass (blackgrass; [9]): 60
- Plant response rating, Blackgrass (blackgrass; [10]): 75

SMILES: CC(C)N(C(=O)n1oc(=O)n(C2CC3CCC2C3)c1=O)c1ccccc1 (centres unmarked) [Compound 328]
- Plant response rating, Giant foxtail (giant foxtail; [15]): 0
- Giant foxtail plant response rating (giant foxtail; [3]): 0
- Giant foxtail plant response rating (0 to 10 scale) (giant foxtail; Preemergence, Rate 125 g/ha): 5
- Giant foxtail plant response rating (giant foxtail; [4]): 8
- Giant foxtail plant response rating (giant foxtail; [5]): 9
- Giant foxtail plant response rating (giant foxtail; [6]): 0
- Plant response rating, Giant foxtail (giant foxtail; [8]): 0
- Plant response rating, Giant foxtail (giant foxtail; [16]): 1
- Plant response rating, Wheat (winter) (winter wheat [1]; Rate 250 g/ha, 0 to 100 scale): 40
- Plant response rating, Wheat (winter) (winter wheat [1]; [9]): 70
- Plant response rating, Wheat (winter) (winter wheat [1]; [10]): 70
- Plant response rating, I. Ryegrass (Italian ryegrass; Rate 250 g/ha, 0 to 100 scale): 65
- Plant response rating, I. Ryegrass (Italian ryegrass; [9]): 60
- Plant response rating, I. Ryegrass (Italian ryegrass; [10]): 70
- Plant response rating, Crabgrass (crabgrass; [15]): 0
- Crabgrass plant response rating (crabgrass; [3]): 0
- Crabgrass plant response rating (0 to 10 scale) (crabgrass; Preemergence, Rate 125 g/ha): 0
- Crabgrass plant response rating (crabgrass; [4]): 3
- Crabgrass plant response rating (crabgrass; [5]): 5
- Crabgrass plant response rating (crabgrass; [6]): 0
- Plant response rating, Crabgrass (crabgrass; [8]): 0
- Plant response rating, Crabgrass (crabgrass; [16]): 2
- Plant response rating, Green foxtail (green foxtail; Rate 250 g/ha, 0 to 100 scale): 100
- Plant response rating, Green foxtail (green foxtail; [9]): 85
- Plant response rating, Green foxtail (green foxtail; [10]): 100
- Plant response rating, Soybean (soybean; [15]): 2
- Soybean plant response rating (soybean; [3]): 0
- Soybean plant response rating (0 to 10 scale) (soybean; Preemergence, Rate 125 g/ha): 0
- Soybean plant response rating (soybean; [4]): 0
- Soybean plant response rating (soybean; [5]): 0
- Plant response rating, Soybean (soybean; [8]): 5
- Plant response rating, Soybean (soybean; [16]): 6
- Plant response rating, Wild oat (wild oat; Rate 250 g/ha, 0 to 100 scale): 70
- Plant response rating, Wild oat (wild oat; [9]): 50
- Plant response rating, Wild oat (wild oat; [10]): 60
- Plant response rating, Wheat (winter) (winter wheat [2]; [11]): 65
- Plant response rating, Wheat (winter) (winter wheat [2]; [12]): 80
- Plant response rating, Wheat (winter) (winter wheat [2]; [13]): 70
- Plant response rating, Barley (winter) (winter barley; [14]): 40
- Plant response rating, Barley (winter) (winter barley; [9]): 50
- Plant response rating, Barley (winter) (winter barley; [10]): 70
- Plant response rating, Sugarbeets (sugar beet; [15]): 0
- Sugarbeets plant response rating (sugar beet; [3]): 0
- Sugarbeets plant response rating (0 to 10 scale) (sugar beet; Preemergence, Rate 125 g/ha): 0
- Sugarbeets plant response rating (sugar beet; [4]): 0
- Sugarbeets plant response rating (sugar beet; [5]): 0
- Sugarbeets plant response rating (sugar beet; [6]): 0
- Plant response rating, Sugarbeets (sugar beet; [8]): 0
- Plant response rating, Sugarbeets (sugar beet; [16]): 0
- Plant response rating, Blackgrass (blackgrass; Rate 250 g/ha, 0 to 100 scale): 50
- Plant response rating, Blackgrass (blackgrass; [9]): 50
- Plant response rating, Blackgrass (blackgrass; [10]): 40
